Experimental data from PMC2962730 (Journal of neurochemistry, 2010).
Residue numbers refer to the chain shown, from its start.

Experiments:
[1] = target: T1, hVAChT A321F (Homo sapiens, UniProt Q16572, A321F); assay: [3H]vesamicol saturation binding; conditions: pH 7.4
T1 sequence (Q16572 1-532 A321F): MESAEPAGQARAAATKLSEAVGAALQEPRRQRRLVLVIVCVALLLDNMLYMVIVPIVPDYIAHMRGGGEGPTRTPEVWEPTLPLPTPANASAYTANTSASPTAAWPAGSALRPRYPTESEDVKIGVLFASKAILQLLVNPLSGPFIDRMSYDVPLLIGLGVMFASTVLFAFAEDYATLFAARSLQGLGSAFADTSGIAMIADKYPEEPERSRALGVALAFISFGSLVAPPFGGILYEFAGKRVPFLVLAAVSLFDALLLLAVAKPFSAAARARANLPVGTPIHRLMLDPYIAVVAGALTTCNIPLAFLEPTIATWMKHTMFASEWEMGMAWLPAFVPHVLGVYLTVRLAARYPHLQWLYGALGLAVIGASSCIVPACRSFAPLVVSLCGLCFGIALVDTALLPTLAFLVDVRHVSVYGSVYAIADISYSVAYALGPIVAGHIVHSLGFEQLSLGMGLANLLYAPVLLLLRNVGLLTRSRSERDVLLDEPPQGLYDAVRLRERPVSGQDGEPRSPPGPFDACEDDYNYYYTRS

[2] = target: T2, hVAChT F231A (Homo sapiens, UniProt Q16572, F231A); assay: ACh equilibrium binding by competition against [3H]vesamicol
T2 sequence (Q16572 1-532 F231A): T1 sequence (Q16572 1-532 A321F) with F231A, F321A

[3] = target: T3, hVAChT W315A (Homo sapiens, UniProt Q16572, W315A); assay: [3H]ACh transport; type: biochemical
T3 sequence (Q16572 1-532 W315A): T1 sequence (Q16572 1-532 A321F) with W315A, F321A

[4] = target: T4, hVAChT W325F (Homo sapiens, UniProt Q16572, W325F); assay: [3H]ACh transport; type: biochemical
T4 sequence (Q16572 1-532 W325F): T1 sequence (Q16572 1-532 A321F) with F321A, W325F

[5] = target: T5, hVAChT C388A (Homo sapiens, UniProt Q16572, C388A); assay: [3H]ACh transport; type: biochemical
T5 sequence (Q16572 1-532 C388A): T1 sequence (Q16572 1-532 A321F) with F321A, C388A

[6] = read-out: KM, Michaelis-Menten constant for ACh transport, pH 7.4

Kd [2] [mM] | FHA, fraction of the ACh sites that have high affinity ([2]; F231A hVAChT, pH 7.4) | Vmax/Bmax, ACh transport normalized to Bmax ([3]; pH 7.4) [min⁻¹] | Km [3, 6] [µM] | Vmax/Bmax, ACh transport normalized to Bmax ([4]; pH 7.4) [min⁻¹] | Km [4, 6] [µM] | Vmax/Bmax, ACh transport normalized to Bmax ([5]; pH 7.4) [min⁻¹] | Km [5, 6] [µM] | Structure (SMILES) | Bmax, maximal specific [3H]vesamicol binding (VAChT expression level) [1] [pmol/mg]
 |  |  |  |  |  |  |  | O[C@@H]1CCCC[C@H]1N1CCC(c2ccccc2)CC1 (racemic) [vesamicol, ( )-trans-2-(4-phenylpiperidino)cyclohexanol] | 21 ± 1
5.8 ± 1.2 | 0.67 ± 0.05 | 5.2 ± 0.8 | 690 ± 220 | 5.0 ± 0.5 | 1000 ± 300 | 12 ± 1 | 2300 ± 500 | CC(=O)OCC[N+](C)(C)C [ACh, acetylcholine] | 
